# ChEMBL document CHEMBL4834472 (J Med Chem, 2021)
# Active and inactive are the calls of the source. The calls are words filed in the database; no cut-off is given here.
# Key:
# [1] = target: Receptor-type tyrosine-protein kinase FLT3 (Homo sapiens, UniProt P36888, F691L); assay: Binding affinity to human partial length FLT3 ITD F691L mutant expressed in mammalian expression system by KdELECT Discover assay
# THP-1 = assay: Antiproliferative activity against human THP-1 cells assessed as cell death measured after 72 hrs by resazurin dye based assay; assay type: functional; conditions: THP-1, 72 h
# [2] = tested on: Receptor-type tyrosine-protein kinase FLT3 (Homo sapiens), P36888 [UNDEFINED MUTATION]; assay: Inhibition of FLT3 ITD (unknown origin) assessed as residual activity at 500 nM
# CCRF-CEM = assay: Antiproliferative activity against human CCRF-CEM cells assessed as cell death measured after 72 hrs by resazurin dye based assay; assay type: functional
# [3] = target: Receptor-type tyrosine-protein kinase FLT3 (Homo sapiens, UniProt P36888, D835V); assay: Binding affinity to human partial length FLT3 ITD D835V mutant expressed in mammalian expression system by KdELECT Discover assay
# [4] = target: T1, Receptor-type tyrosine-protein kinase FLT3 (Homo sapiens, UniProt P36888, ITD)
# CDK2/Cyclin A1 = CDK2/Cyclin A1 (Homo sapiens, UniProt P24941); assay type: protein-complex assay
# Description: Inhibition of CDK2/Cyclin A1 (unknown origin) at 1 uM using histone H1 as substrate preincubated for 20 mins followed by 33P-ATP addition and measured after 2 hrs by filter binding method
# [5] = target: Maternal embryonic leucine zipper kinase (Homo sapiens) (UniProt Q14680); assay: Inhibition of MELK (unknown origin) assessed as residual activity at 500 nM
# MV4-11 [6] = assay: Induction of apoptosis in human MV4-11 cells assessed as increase in cleaved PARP1 level at 100 nM incubated for 24 hrs by Western blot analysis; assay type: functional, cell-based
# SEM cells = assay: Antiproliferative activity against human SEM cells assessed as cell death measured after 72 hrs by resazurin dye based assay; assay type: functional
# [7] = target: Receptor-type tyrosine-protein kinase FLT3 (Homo sapiens) (UniProt P36888); assay: Inhibition of FLT3 autophosphorylation in human MV4-11 cells at 20 to 100 nM incubated for 1 hrs by Western blot analysis; assay type: cell-based; conditions: dose 20-100 nM
# K562 = assay: cells; conditions: Homo sapiens, K562, 72 h
# Description: Antiproliferative activity against human K562 cells assessed as cell death measured after 72 hrs by resazurin dye based assay
# [8] = target: Cyclin-dependent kinase 1/cyclin B1 (Homo sapiens, UniProt P06493); assay: Inhibition of CDK1/cyclin B1 (unknown origin) in presence of [32P]gammaATP by image analyser; assay type: protein-complex assay
# MV4-11 [9] = assay: Induction of apoptosis in human MV4-11 cells assessed as effect on Bcl2 level at 100 nM incubated for 24 hrs by Western blot analysis; assay type: functional, cell-based
# MOLM-13 = assay: Antiproliferative activity against human MOLM-13 cells assessed as cell death measured after 72 hrs by resazurin dye based assay; assay type: functional; conditions: MOLM-13, 72 h
# [10] = tested on: Receptor-type tyrosine-protein kinase FLT3 (Homo sapiens), P36888 [D835Y]; assay: Inhibition of FLT3 D835Y (unknown origin) assessed as residual activity at 500 nM
# CDK2/Cyclin A2 = CDK2/Cyclin A2 (Homo sapiens, UniProt P24941); assay: Inhibition of CDK2/cyclin A2 (unknown origin) in presence of [32P]gammaATP by image analyser; assay type: protein-complex assay
# [11] = target: Receptor-type tyrosine-protein kinase FLT3 (Homo sapiens) (UniProt P36888); assay: Inhibition of FLT3 in human MV4-11 cells assessed as ERK1/2 phosphorylation at 20 to 100 nM incubated for 1 hrs by Western blot analysis; assay type: cell-based; conditions: dose 20-100 nM
# MV4-11 [12] = assay: Induction of apoptosis in human MV4-11 cells assessed as decrease in MCL1 level at 100 nM incubated for 24 hrs by Western blot analysis; assay type: functional, cell-based
# MOLM-14 [13] = assay: Antiproliferative activity against human MOLM-14 cells harboring F691L mutant assessed as cell death measured after 72 hrs by resazurin dye based assay; assay type: functional; conditions: MOLM-14, 72 h
# MV4-11 [14] = assay: cells; conditions: Homo sapiens, MV4-11, 72 h
# Description: Antiproliferative activity against human MV4-11 cells assessed as cell death measured after 72 hrs by resazurin dye based assay
# U-937 = assay: Antiproliferative activity against human U-937 cells assessed as cell death measured after 72 hrs by resazurin dye based assay; assay type: functional; conditions: U-937, 72 h
# [15] = target: Leucine-rich repeat serine/threonine-protein kinase 2 (Homo sapiens) (UniProt Q5S007); assay: Inhibition of LRRK2 (unknown origin) assessed as residual activity at 500 nM
# MV4-11 [16] = assay: Induction of apoptosis in human MV4-11 cells assessed as caspase 7 activation using fluorescent substrate Ac-DEVD-AMC at 100 nM incubated for 24 hrs by Western blot analysis; assay type: functional, cell-based
# BaF3 = assay: Antiproliferative activity against mouse BaF3 cells assessed as cell death measured after 72 hrs by resazurin dye based assay; assay type: functional; conditions: BaF3, 72 h
# [17] = target: Receptor-type tyrosine-protein kinase FLT3 (Homo sapiens) (UniProt P36888); assay: Inhibition of FLT3 in human MV4-11 cells assessed as STAT5 phosphorylation at Y694 at 20 to 100 nM incubated for 1 hrs by Western blot analysis; assay type: cell-based; conditions: dose 20-100 nM
# MV4-11 [18] = assay: Induction of apoptosis in human MV4-11 cells assessed as caspase 3 activation using fluorescent substrate Ac-DEVD-AMC at 100 nM incubated for 24 hrs by Western blot analysis; assay type: functional, cell-based
# CDK9/cyclin T1 = CDK9/cyclin T1 (Homo sapiens, UniProt P50750); assay: Inhibition of CDK9/cyclin T1 (unknown origin) in presence of [32P]gammaATP by image analyser; assay type: protein-complex assay
# MOLM-14 [19] = assay: Antiproliferative activity against human MOLM-14 cells harboring D835Y mutant assessed as cell death measured after 72 hrs by resazurin dye based assay; assay type: functional; conditions: MOLM-14, 72 h
# [20] = target: NT-3 growth factor receptor (Homo sapiens) (UniProt Q16288); assay: Inhibition of TRKC (unknown origin) assessed as residual activity at 500 nM
# MOLM-14 [21] = assay: Antiproliferative activity against human MOLM-14 cells assessed as cell death measured after 72 hrs by resazurin dye based assay; assay type: functional; conditions: MOLM-14, 72 h
# [22] = target: T1, Receptor-type tyrosine-protein kinase FLT3; assay: Binding affinity to human partial length FLT3 ITD mutant expressed in bacterial expression system by KdELECT Discover assay
# Sequence of Maternal embryonic leucine zipper kinase (Homo sapiens) (Q14680 whole entry, looked up): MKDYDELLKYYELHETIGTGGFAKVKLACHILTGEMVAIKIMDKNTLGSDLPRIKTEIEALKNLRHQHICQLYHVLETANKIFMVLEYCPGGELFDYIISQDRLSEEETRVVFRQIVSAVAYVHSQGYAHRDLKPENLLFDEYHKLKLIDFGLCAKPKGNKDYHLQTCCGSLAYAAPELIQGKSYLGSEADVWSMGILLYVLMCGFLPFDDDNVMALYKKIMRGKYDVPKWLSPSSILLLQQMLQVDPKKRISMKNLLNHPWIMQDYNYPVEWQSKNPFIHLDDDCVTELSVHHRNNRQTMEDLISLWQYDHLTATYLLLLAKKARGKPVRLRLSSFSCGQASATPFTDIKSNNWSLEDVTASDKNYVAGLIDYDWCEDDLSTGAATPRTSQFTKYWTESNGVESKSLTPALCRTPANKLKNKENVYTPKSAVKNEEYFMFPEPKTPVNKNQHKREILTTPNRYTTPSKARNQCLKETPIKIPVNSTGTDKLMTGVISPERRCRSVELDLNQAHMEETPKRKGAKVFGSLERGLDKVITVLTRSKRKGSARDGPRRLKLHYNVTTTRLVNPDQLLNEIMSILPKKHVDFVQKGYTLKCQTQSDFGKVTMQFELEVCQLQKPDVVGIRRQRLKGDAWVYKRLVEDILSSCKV
# Sequence of NT-3 growth factor receptor (Homo sapiens) (Q16288 32-839 limits assumed): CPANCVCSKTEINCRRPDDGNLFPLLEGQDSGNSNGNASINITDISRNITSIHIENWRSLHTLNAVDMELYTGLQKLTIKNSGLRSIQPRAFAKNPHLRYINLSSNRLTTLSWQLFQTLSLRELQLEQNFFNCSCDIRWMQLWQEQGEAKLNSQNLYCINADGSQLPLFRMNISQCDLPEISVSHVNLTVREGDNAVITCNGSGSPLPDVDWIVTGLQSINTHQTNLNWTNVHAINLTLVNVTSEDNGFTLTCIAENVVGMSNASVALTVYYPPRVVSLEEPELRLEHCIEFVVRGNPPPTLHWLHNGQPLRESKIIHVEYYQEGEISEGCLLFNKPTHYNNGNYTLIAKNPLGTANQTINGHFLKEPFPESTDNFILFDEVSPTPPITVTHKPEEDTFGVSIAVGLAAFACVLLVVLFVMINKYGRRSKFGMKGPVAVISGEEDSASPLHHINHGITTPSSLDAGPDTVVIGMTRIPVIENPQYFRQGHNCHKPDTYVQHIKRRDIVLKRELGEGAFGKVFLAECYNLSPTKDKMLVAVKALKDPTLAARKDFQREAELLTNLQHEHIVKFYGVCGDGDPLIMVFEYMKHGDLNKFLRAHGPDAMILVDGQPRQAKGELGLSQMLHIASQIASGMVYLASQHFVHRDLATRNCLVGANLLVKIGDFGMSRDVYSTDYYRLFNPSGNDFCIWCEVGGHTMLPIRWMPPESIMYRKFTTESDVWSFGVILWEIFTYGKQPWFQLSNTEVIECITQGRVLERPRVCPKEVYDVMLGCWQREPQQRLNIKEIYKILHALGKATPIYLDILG
# Sequence of Cyclin-dependent kinase 1/cyclin B1 (P06493 whole entry): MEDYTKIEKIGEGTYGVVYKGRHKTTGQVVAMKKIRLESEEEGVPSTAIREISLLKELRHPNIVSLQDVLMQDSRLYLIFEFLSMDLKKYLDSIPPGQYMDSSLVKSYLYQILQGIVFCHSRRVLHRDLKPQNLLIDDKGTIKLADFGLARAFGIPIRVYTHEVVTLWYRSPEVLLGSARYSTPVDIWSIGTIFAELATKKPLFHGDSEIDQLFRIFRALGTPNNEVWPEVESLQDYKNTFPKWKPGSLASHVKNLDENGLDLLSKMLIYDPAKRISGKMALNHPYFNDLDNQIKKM
# Sequence of Cyclin-dependent kinase 1/cyclin B1 (P14635 whole entry, further chain): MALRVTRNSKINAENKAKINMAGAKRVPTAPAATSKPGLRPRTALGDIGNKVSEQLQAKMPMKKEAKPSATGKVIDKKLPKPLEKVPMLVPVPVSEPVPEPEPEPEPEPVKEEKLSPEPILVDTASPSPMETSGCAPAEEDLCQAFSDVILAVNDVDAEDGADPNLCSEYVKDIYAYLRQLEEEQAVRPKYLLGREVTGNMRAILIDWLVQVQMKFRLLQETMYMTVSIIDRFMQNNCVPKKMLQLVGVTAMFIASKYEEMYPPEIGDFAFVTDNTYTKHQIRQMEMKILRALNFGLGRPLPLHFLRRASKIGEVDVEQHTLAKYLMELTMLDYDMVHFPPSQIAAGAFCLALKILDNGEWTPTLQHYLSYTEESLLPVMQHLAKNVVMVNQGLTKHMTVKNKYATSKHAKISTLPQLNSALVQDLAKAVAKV
# Sequence of CDK9/cyclin T1 (O60563 whole entry): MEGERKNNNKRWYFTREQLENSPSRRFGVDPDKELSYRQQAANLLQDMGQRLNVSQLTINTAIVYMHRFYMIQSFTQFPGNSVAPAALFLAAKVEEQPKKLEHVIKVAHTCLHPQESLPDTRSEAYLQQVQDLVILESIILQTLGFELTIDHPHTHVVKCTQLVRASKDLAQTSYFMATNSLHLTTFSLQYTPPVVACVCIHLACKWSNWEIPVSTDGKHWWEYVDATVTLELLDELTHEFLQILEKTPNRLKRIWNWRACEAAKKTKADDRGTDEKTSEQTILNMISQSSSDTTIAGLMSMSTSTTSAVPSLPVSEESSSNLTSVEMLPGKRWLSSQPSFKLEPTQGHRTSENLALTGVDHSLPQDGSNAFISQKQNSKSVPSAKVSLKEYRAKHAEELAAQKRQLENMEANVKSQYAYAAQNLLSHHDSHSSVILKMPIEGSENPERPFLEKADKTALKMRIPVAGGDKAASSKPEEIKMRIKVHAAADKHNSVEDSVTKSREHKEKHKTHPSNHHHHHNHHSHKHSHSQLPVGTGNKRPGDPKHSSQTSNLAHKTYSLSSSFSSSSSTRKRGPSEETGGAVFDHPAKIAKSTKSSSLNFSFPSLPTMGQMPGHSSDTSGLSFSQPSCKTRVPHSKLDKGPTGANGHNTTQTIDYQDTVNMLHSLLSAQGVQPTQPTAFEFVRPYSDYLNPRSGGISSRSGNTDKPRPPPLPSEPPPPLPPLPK
# Sequence of CDK9/cyclin T1 (P50750 whole entry): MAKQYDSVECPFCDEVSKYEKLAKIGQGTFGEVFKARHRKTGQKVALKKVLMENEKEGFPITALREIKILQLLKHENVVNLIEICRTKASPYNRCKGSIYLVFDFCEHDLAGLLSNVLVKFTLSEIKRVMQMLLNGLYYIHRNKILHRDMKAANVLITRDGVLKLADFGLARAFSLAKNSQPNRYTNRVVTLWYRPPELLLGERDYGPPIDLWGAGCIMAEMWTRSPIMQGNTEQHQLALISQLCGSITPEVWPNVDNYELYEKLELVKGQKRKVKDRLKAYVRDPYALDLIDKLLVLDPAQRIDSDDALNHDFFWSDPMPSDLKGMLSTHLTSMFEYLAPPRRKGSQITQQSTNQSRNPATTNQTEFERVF
smiles,measurement,setting,value
Cc1n[nH]c2ccc3nc(-c4c[nH]nc4C(F)(F)F)c4c(c3c12)CCCC4,Kd,[1],1.3 nM
same,IC50,THP-1,6.8 µM
same,Activity,[2],< 2.5%
same,IC50,CCRF-CEM,6.51 µM
same,Kd,[3],0.73 nM
same,IC50,[4],6 nM
same,IC50,CDK2/Cyclin A1,430 nM
same,Activity,[5],4%
same,Activity,MV4-11 [6],Active
same,IC50,SEM cells,422 nM
same,inhibition,[7],Active
same,IC50,K562,9.82 µM
same,IC50,[8],157 nM
same,Activity,MV4-11 [9],Active
same,IC50,MOLM-13,68 nM
same,Activity,[10],< 2.5%
same,IC50,CDK2/Cyclin A2,430 nM
same,inhibition,[11],inactive
same,Activity,MV4-11 [12],Active
same,IC50,MOLM-14 [13],53 nM
same,IC50,MV4-11 [14],70 nM
same,IC50,U-937,2880 nM
same,Activity,[15],4%
same,Activity,MV4-11 [16],Active
same,IC50,BaF3,153 µM
same,inhibition,[17],Active
same,Activity,MV4-11 [18],Active
same,IC50,CDK9/cyclin T1,> 1000 nM
same,IC50,MOLM-14 [19],36 nM
same,Activity,[20],4%
same,IC50,MOLM-14 [21],26 nM
same,Kd,[22],1.6 nM
